The target of the assay is T1, GLP-1R (Homo sapiens, UniProt P43220).
T1 construct: host or cells: GLP-1R CRE-bla CHO-K1 cells
The experiment in a line: EC20 GLP-1(9-36) PAM cAMP assay: dose response of compound in the presence of fixed concentration of GLP-1(9-36). Type of assay: cell-based. Conditions: GLP-1R CRE-bla CHO-K1 cells. An outline of the steps:
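GLP-1R CRE-bla CHO-K1 cells treated 30 min at 37 °C with 12-point compound dose response plus fixed EC20 GLP-1(9-36), with IBMX, in HBSS/HEPES/0.1% BSA pH 7.4. Total cAMP measured by luminescent detection against standard curve; EC50 and Emax from non-linear regression.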

The mark [1] stands for this setting: dose response of compound in presence of fixed concentration of GLP-1(9-36), read-out: EC20 GLP-1(9-36) PAM EC50.
The mark [2] stands for this setting: compound dose response with fixed concentration of GLP-1(9-36), read-out: EC20 GLP-1(9-36) PAM EC50.

In patent publication US10034886B2, “GLP-1 receptor modulators” (Celgene International II SÀRL, priority 2014, dated 2018) one finds EC50 data, which are given here for 45 compounds.

Like-named read-outs stand apart in the source and are kept apart here.

T1 sequence (P43220 24-463): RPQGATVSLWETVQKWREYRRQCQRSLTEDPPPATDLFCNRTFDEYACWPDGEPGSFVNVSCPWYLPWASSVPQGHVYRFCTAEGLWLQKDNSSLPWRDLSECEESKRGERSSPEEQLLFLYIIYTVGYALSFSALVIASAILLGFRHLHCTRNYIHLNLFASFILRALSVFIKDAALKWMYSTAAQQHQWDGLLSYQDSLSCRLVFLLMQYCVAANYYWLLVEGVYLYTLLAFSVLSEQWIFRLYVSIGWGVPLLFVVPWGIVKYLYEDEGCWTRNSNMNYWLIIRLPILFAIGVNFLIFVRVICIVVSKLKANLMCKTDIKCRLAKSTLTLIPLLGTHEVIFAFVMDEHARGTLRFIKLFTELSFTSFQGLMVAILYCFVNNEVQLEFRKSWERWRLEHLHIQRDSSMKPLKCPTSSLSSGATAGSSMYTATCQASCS
T1 sequence (P01275 100-127 partner limits assumed): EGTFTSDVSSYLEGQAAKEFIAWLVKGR

For the compound `CCCCCCCOc1ccc(-c2cnc(-c3ccc(C[C@H](NC(=O)c4ccc(C(C)(C)C)s4)C(=O)NC(C(=O)O)C(O)c4ccc(Cl)c(Cl)c4)cc3)nc2)cc1` (stereo partly drawn) [Compound 905], the EC50 under setting [1] was 5000 to 10000 nM.

Regarding `CCCCCCCOc1ccc(-c2cnc(-c3ccc(C[C@H](NC(=O)c4ccc(C(C)(C)C)cc4)C(=O)N[C@@H](CC(=O)N[C@@H](CO)C(=O)O)C(=O)O)cc3)nc2)cc1` [Compound 481], the EC50 under setting [1] was in the range of 800 to 2500 nM.

With `CCc1ccc(/C(C)=C/c2cnc(-c3ccc(C[C@H](NC(=O)c4ccc(C(C)(C)C)s4)C(=O)N[C@H](C)C(=O)O)cc3)nc2)cc1` [Compound 1266], the half-maximal effective concentration (EC50) under setting [2] lay in the range of 2500 to 5000 nM.

For `CCCCCCCOc1ccc(-c2cnc(-c3ccc(C[C@H](NC(=O)c4ccc(C(C)(C)C)s4)C(=O)N4CCC[C@H]4C(=O)NCC(=O)O)cc3)nc2)cc1` [Compound 493], the 50% effective concentration (EC50) under setting [1] was under 800 nM.

Take `CC(C)(C)CCOc1ccc(-c2cnc(-c3ccc(C[C@H](NC(=O)c4ccc(C(C)(C)C)s4)C(=O)NC(C(=O)O)C(O)c4ccccc4)cc3)nc2)cc1` (stereo partly drawn) [Compound 941]: under setting [1], the EC50 fell in the range of 2500 to 5000 nM.

As for `CCC[C@H]1CC[C@H](C2CCN(c3cnc(-c4ccc(C[C@H](NC(=O)c5ccc(OC(C)(C)C)cc5)C(=O)N5CC(C(=O)O)C5)cc4)nc3)CC2)CC1` [Compound 1524], the concentration giving a half-maximal response (EC50) under setting [2] was under 800 nM.

Take `CCCCCCCOc1ccc(-c2cnc(-c3ccc(CC(NC(=O)c4ccc(C(C)(C)C)s4)C(=O)N4CC(C(=O)O)C4)cc3)nc2)cc1` (stereo not drawn) [Compound 431]: under setting [1], the EC50 was under 800 nM.

For the compound `CC(C)(C)c1ccc(C(=O)N[C@@H](Cc2ccc(-c3ncc(-c4ccc(-c5ccccc5)cc4)cn3)cc2)C(=O)N2CCC[C@H]2C(=O)O)s1` [Compound 1124], the EC50 under setting [1] is under 800 nM.

As to `CCCCCCCOc1ccc(-c2cnc(-c3ccc(C[C@H](NC(=O)c4ccc(C(C)(C)C)s4)C(=O)NCCCN4CCOCC4)cc3)nc2)cc1` [Compound 964], the half-maximal effective concentration (EC50) under setting [1] was in the range of 2500 to 5000 nM.

As to `CC(C)CCCOc1ccc(-c2cnc(-c3ccc(C[C@H](NC(=O)c4ccc(S(C)(=O)=O)s4)C(=O)N4CC(C(=O)O)C4)cc3)nc2)cc1` [Compound 1246], the EC50 under setting [2] is under 800 nM.

As to `CCCCCCCOc1ccc2nc(-c3ccc(C[C@H](NC(=O)c4ccc(C(C)(C)C)cc4)C(=O)N4CC[C@H](C(=O)O)C4)cc3)ncc2c1` [Compound 810], the EC50 under setting [1] fell in the range of 5000 to 10000 nM.

With `C[C@@H](NC(=O)[C@H](Cc1ccc(-c2ncc(-c3ccc(C4CC4)cc3)cn2)cc1)NC(=O)c1ccc(C(C)(C)C)s1)C(=O)O` [Compound 1306], the concentration for a half-maximal effect (EC50) under setting [2] lay within 800 to 2500 nM.

`C[C@@H](NC(=O)[C@H](Cc1ccc(-c2ncc(N3CCN(CC4CCCCC4)C3=O)cn2)cc1)NC(=O)c1ccc(C(C)(C)C)s1)C(=O)O` [Compound 1267]: the 50% effective concentration (EC50) under setting [2] was in the range of 5000 to 10000 nM.

Regarding `CCCCCCCOc1ccc(-c2cnc(-c3ccc(C[C@H](NC(=O)c4ccc(C(C)(C)C)cc4)C(=O)NC(CCC)C(=O)O)cc3)nc2)cc1` (stereo partly drawn) [Compound 562], the concentration giving a half-maximal response (EC50) under setting [1] is under 800 nM.

Regarding `CCCCCCCOc1ccc(-c2cnc(-c3ccc(C[C@H](NC(=O)c4ccc(C(C)(C)C)s4)C(=O)N(CC)CCO)cc3)nc2)cc1` [Compound 969], the EC50 under setting [1] fell in the range of 2500 to 5000 nM.

Take `CC[C@H]1CC[C@H](c2ccc(-c3cnc(-c4ccc(C[C@H](NC(=O)c5ccc(C(C)(C)C)s5)C(=O)N5CC(C(=O)O)C5)cc4)nc3)cc2)CC1` [Compound 1057, 1-((S)-2-(5-(tert-butyl)thiophene-2-carboxamido)-3-(4-(5-(4-((1r,4r)-4-ethylcyclohexyl)phenyl)pyrimidin-2-yl)phenyl)propanoyl)azetidine-3-carboxylic acid]: the EC50 under setting [1] was under 800 nM.

For the compound `CCCc1ccc(-c2ccc(-c3cnc(-c4ccc(C[C@H](NC(=O)C5CCC(C(C)(C)C)CC5)C(=O)N5CC(C(=O)O)C5)cc4)nc3)c(F)c2)cc1` (stereo partly drawn) [Compound 1401], the EC50 under setting [2] was under 800 nM.

For the compound `CCC[C@H]1CC[C@H](C2CCN(c3cnc(-c4ccc(C[C@H](NC(=O)c5ccc(C(C)(C)C)s5)C(=O)N[C@H]5C[C@H](C(=O)O)C5)cc4)nc3)CC2)CC1` [Compound 1447], the EC50 under setting [2] is under 800 nM.

For `CCCCCCCOc1ccc(-c2cnc(-c3ccc(C[C@H](NC(=O)c4ccc(C(C)(C)C)s4)C(=O)N4CCC(C)(C(=O)O)C4)cc3)nc2)cc1` (stereo partly drawn) [Compound 637], the concentration for a half-maximal effect (EC50) under setting [1] was 800 to 2500 nM.

Turning to `C[C@@H](NC(=O)[C@H](Cc1ccc(-c2ncc(/C=C/c3ccc(F)cc3F)cn2)cc1)NC(=O)c1ccc(C(C)(C)C)s1)C(=O)O` [Compound 1255], under setting [2], the EC50 is 2500 to 5000 nM.

Take `CCCCCCCOc1ccc(-c2cnc(-c3ccc(C[C@H](NC(=O)c4ccc(C(C)(C)C)cc4)C(=O)NC(C)(C)C(=O)O)cc3)nc2)cc1` [Compound 409]: under setting [1], the 50% effective concentration (EC50) is 800 to 2500 nM.

In the case of `CC(C)(C)c1ccc(C(=O)NC(Cc2ccc(-c3ncc(N4CCC5CCCCC5C4)cn3)cc2)C(=O)N2CC(C(=O)O)C2)s1` (stereo not drawn) [Compound 1421], the half-maximal effective concentration (EC50) under setting [2] is under 800 nM.

On to `Cc1cccc(Oc2ccc(-c3cnc(-c4ccc(C[C@H](NC(=O)c5ccc(C(C)(C)C)s5)C(=O)N[C@H](C)C(=O)O)cc4)nc3)cn2)c1` [Compound 1016], for which, under setting [1], the EC50 lay in the range of 5000 to 10000 nM.

For the compound `CCCc1cnc(C2CCN(c3cnc(-c4ccc(C[C@H](NC(=O)c5ccc(C(C)(C)C)s5)C(=O)N5CC(C(=O)O)C5)cc4)nc3)CC2)nc1` [Compound 1499], under setting [2], the EC50 lay in the range of 2500 to 5000 nM.

For `CC[C@H]1CC[C@H](c2ccc(-c3cnc(-c4ccc(C[C@H](NC(=O)c5ccc(C(C)(C)C)s5)C(=O)N[C@@H](CO)C(=O)O)cc4)nc3)cc2)CC1` [Compound 1326], the EC50 under setting [2] was under 800 nM.

In the case of `CCCCCCCOc1ccc(-c2cnc(-c3ccc(C[C@H](NC(=O)c4ccc(C(C)(C)C)s4)C(=O)NCC4CCNC4)cc3)nc2)cc1` (stereo partly drawn) [Compound 390], under setting [1], the concentration for a half-maximal effect (EC50) was in the range of 800 to 2500 nM.

Regarding `CCCCCCCOc1ccc(-c2cnc(-c3ccc(C[C@H](NC(=O)c4ccc(C(C)(C)C)cc4)C(=O)N[C@@H](CC(=O)N(C)CCN)C(=O)O)cc3)nc2)cc1` [Compound 509], the EC50 under setting [1] fell in the range of 800 to 2500 nM.

Regarding `CCCCCCCOc1ccc(-c2cnc(-c3ccc(C[C@H](NC(=O)c4ccc(C(C)(C)C)s4)C(=O)N[C@@H](C(=O)O)[C@H](C)CC)cc3)nc2)cc1` [Compound 658], the EC50 under setting [1] is under 800 nM.

For the compound `C[C@@H](NC(=O)[C@H](Cc1ccc(-c2ncc(-c3ccc(-c4ccc(OC(F)(F)F)cc4F)cc3)cn2)cc1)NC(=O)c1ccc(C(C)(C)C)s1)C(=O)O` [Compound 1146], the EC50 under setting [1] was under 800 nM.

For the compound `CC(C)(C)c1ccc(C(=O)N[C@@H](Cc2ccc(-c3ncc(-c4ccc(OCC5CC5)cc4)cn3)cc2)C(=O)NCCC(=O)O)cc1` [Compound 684], under setting [1], the 50% effective concentration (EC50) was in the range of 5000 to 10000 nM.

For `CCCCCCCOc1ccc(-c2cnc(-c3ccc(C[C@H](NC(=O)c4ccc(C(C)(C)C)cc4)C(=O)N[C@H](C(=O)O)[C@@H](C)O)cc3)nc2)cc1` [Compound 450], the EC50 under setting [1] was under 800 nM.

As for `CCC[C@H]1CC[C@H](C2CCN(c3cnc(-c4ccc(C[C@H](NC(=O)c5ccc(C(C)(C)C)s5)C(=O)N[C@H](CCC(N)=O)C(=O)O)cc4)nc3)CC2)CC1` [Compound 1445], the EC50 under setting [2] was under 800 nM.

Consider `CCc1ccc(C(=O)N[C@@H](Cc2ccc(-c3ncc(-c4ccc(OCCCC(C)C)cc4)cn3)cc2)C(=O)N2CC(C(=O)O)C2)nc1` [Compound 1245], for which the half-maximal effective concentration (EC50) under setting [2] lay in the range of 2500 to 5000 nM.

As to `CCCCCCCOc1ccc(-c2cnc(-c3ccc(C[C@H](NC(=O)c4ccc(C(C)(C)C)s4)C(=O)N4CCC(CCC(=O)O)C4)cc3)nc2)cc1` (stereo partly drawn) [Compound 991], the 50% effective concentration (EC50) under setting [1] fell in the range of 800 to 2500 nM.

In the case of `CCCCCCCOc1ccc(-c2cnc(-c3ccc(C[C@H](NC(=O)c4ccc(C(C)(C)C)s4)C(=O)NC(C(=O)O)c4cccc(S(C)(=O)=O)c4)cc3)nc2)cc1` (stereo partly drawn) [Compound 501], the concentration giving a half-maximal response (EC50) under setting [1] is under 800 nM.

For the compound `CCCCCCCOc1ccc(-c2cnc(-c3ccc(C[C@H](NC(=O)c4ccc(C(C)(C)C)s4)C(=O)NC4(C(=O)O)CC4)cc3)nc2)cc1` [Compound 604], the 50% effective concentration (EC50) under setting [1] was 800 to 2500 nM.

On to `CCCCCCCOc1ccc(-c2cnc(-c3ccc(C[C@H](NC(=O)c4ccc(C(C)(C)C)s4)C(=O)N4CC[C@H](c5nnn[nH]5)C4)cc3)nc2)cc1` [Compound 886], for which, where the note is “EC20 GLP-1(9-36) PAM EC50, dose response of compound in presence of fixed concentration of GLP-1(9-36)”, the EC50 was 800 to 2500 nM.

Regarding `Cc1ccc(-c2ccc(-c3cnc(-c4ccc(C[C@H](NC(=O)c5ccc(C(C)(C)C)s5)C(=O)N[C@H](C)C(=O)O)cc4)nc3)cc2F)cc1` [Compound 1139], the half-maximal effective concentration (EC50) under setting [1] was under 800 nM.

Regarding `CCCCCCCOc1ccc(-c2cnc(-c3ccc(C[C@H](NC(=O)c4ccc(CC)cn4)C(=O)N4CC(C(=O)O)C4)cc3)nc2)cc1` [Compound 1106], the EC50 under setting [1] is 2500 to 5000 nM.

In the case of `CCCCCCCOc1ccc(-c2cnc(-c3ccc(C[C@H](NC(=O)c4ccc(C(C)(C)C)cc4)C(=O)NC(Cc4c[nH]c5ncccc45)C(=O)O)cc3)nc2)cc1` (stereo partly drawn) [Compound 584], under setting [1], the EC50 was in the range of 800 to 2500 nM.

Turning to `CCCCCCCOc1ccc(-c2cnc(-c3ccc(C[C@H](NC(=O)c4ccc(C(C)(C)C)s4)C(=O)NS(=O)(=O)c4ccccc4)cc3)nc2)cc1` [Compound 423], the 50% effective concentration (EC50) under setting [1] fell in the range of 800 to 2500 nM.

Take `CCCCCCCOc1ccc(-c2cnc(-c3ccc(C[C@H](NC(=O)c4ccc(C(C)(C)C)cc4)C(=O)NC(CC(=O)O)C4CCOCC4)cc3)nc2)cc1` (stereo partly drawn) [Compound 551]: the half-maximal effective concentration (EC50) under setting [1] was under 800 nM.

With `CCCCCCCOc1ccc(-c2cnc(-c3ccc(C[C@H](NC(=O)c4ccc(C(C)(C)C)cc4)C(=O)N[C@@H](CO)C(=O)O)cc3)nc2)cc1` [Compound 418], under setting [1], the EC50 is under 800 nM.

For the compound `CCOc1ccc(-c2cnc(-c3ccc(C[C@H](NC(=O)c4ccc(C(C)(C)C)s4)C(=O)N[C@H](C)C(=O)O)cc3)nc2)cc1` [Compound 731], the half-maximal effective concentration (EC50) under setting [1] lay in the range of 2500 to 5000 nM.

Take `CCC[C@H]1CC[C@H](C2CCN(c3cnc(-c4ccc(C[C@H](NC(=O)c5ccc(S(=O)(=O)C(C)C)cc5)C(=O)N5CC(C(=O)O)C5)cc4)nc3)CC2)CC1` [Compound 1523]: under setting [2], the EC50 was 800 to 2500 nM.
